10 molecules from ChEMBL document CHEMBL1129710, “Glycomimetic selectin inhibitors: (-D-mannopyranosyloxy)methylbiphenyls” (Bioorg Med Chem Lett, 1996) can be followed below.

The subject of assay [1] is HL-60. Nature of the assay: Compound was tested for its ability to inhibit sialyl Lewis X (sLex, IC50 = 2 mM) dependent binding of HL-60 cells to P-selectin fusion protein. It counts as functional.
The target of assay [2] is T1, E-selectin (Mus musculus, UniProt Q00690).
T1 sequence (Q00690 whole entry): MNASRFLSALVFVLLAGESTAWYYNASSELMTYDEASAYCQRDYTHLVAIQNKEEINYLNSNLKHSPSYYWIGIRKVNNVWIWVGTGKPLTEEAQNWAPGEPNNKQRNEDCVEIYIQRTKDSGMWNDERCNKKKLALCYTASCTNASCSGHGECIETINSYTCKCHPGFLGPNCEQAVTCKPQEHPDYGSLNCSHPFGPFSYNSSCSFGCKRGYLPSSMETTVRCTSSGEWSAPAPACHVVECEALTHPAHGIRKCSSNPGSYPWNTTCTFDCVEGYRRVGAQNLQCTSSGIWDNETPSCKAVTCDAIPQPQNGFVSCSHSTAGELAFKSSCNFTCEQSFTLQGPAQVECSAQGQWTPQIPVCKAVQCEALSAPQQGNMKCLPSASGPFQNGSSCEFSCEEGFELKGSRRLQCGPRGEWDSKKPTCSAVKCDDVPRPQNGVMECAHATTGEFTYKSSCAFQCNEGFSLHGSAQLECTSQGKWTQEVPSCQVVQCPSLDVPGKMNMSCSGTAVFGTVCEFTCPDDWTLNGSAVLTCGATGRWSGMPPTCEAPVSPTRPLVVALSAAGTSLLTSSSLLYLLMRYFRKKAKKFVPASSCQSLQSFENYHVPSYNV
Nature of the assay: Compound was tested for its ability to inhibit sialyl Lewis X dependent binding of HL-60 cells to Selectin E fusion protein.

Assay [3] has as its system HL-60. The experiment in a line: Compound was tested for its ability to inhibit sialyl Lewis X dependent binding of HL-60 cells to P-selectin fusion protein. In kind it is functional, cell-based. To be noted: Homo sapiens.
For assay [4], the system named is HL-60. The experiment in a line: Compound was tested for its ability to inhibit sialyl Lewis X (sLex, IC50 = 2 mM) dependent binding of HL-60 cells to P-selectin fusion protein; Not assayed. In kind it is functional, cell-based.

Calls of active or inactive are those of the source. The calls are words filed in the database; no cut-off is given here.

For `Cc1cc(-c2cccc(CO[C@H]3O[C@H](CO)[C@@H](O)[C@@H](O)[C@@H]3O)c2)cc(C)c1OCC(=O)O`, the Ratio in assay [1] amounted to 0.5. Same read-out and setting: then `O=C(O)CCC(=O)c1ccc(-c2cccc(CO[C@H]3O[C@H](CO)[C@@H](O)[C@@H](O)[C@@H]3O)c2)cc1`, with >>10. As for `O=C(O)Cc1cccc(-c2cccc(CO[C@H]3O[C@H](CO)[C@@H](O)[C@@H](O)[C@@H]3O)c2)c1`, the Ratio in assay [1] worked out at 1.2. As for `O=C(O)COc1ccc(-c2cccc(CO[C@H]3O[C@H](CO)[C@@H](O)[C@@H](O)[C@@H]3O)c2)cc1`, the Ratio in assay [1] amounted to 1.2. For `O=C(O)Cc1ccc(-c2cccc(CO[C@H]3O[C@H](CO)[C@@H](O)[C@@H](O)[C@@H]3O)c2)cc1`, the Ratio in assay [1] was greater than 20. Same read-out and setting: then `O=C(O)COc1cccc(-c2cccc(CO[C@H]3O[C@H](CO)[C@@H](O)[C@@H](O)[C@@H]3O)c2)c1`, with 4.8. Take `CC(=O)N[C@H]1[C@H]([C@H](O)[C@H](O)CO)O[C@@](O[C@H]2[C@@H](O)[C@@H](CO)O[C@@H](O[C@@H]([C@H](O[C@@H]3O[C@@H](C)[C@@H](O)[C@@H](O)[C@@H]3O)[C@H](C=O)NC(C)=O)[C@H](O)CO)[C@@H]2O)(C(=O)O)C[C@@H]1O` [SIALYL LEWIS X]: the IC50 in assay [2] worked out at 3 mM; in assay [3], 2 mM.

Turning to `O=C(O)Cc1cccc(-c2ccccc2CO[C@H]2O[C@H](CO)[C@@H](O)[C@@H](O)[C@@H]2O)c1`, the Ratio result in assay [4] is “inactive”. For the molecule `O=C(O)c1cccc(-c2cccc(CO[C@H]3O[C@H](CO)[C@@H](O)[C@@H](O)[C@@H]3O)c2)c1`, in assay [1], the Ratio was 2.5. Still for that read-out and setting: then `O=C(O)Cc1cccc(-c2ccc(CO[C@H]3O[C@H](CO)[C@@H](O)[C@@H](O)[C@@H]3O)cc2)c1`, with >>2.3.
